Measured values from paper PMC7618453, “Calcium Competitive Inhibition of Langerin by Thiazolopyrimidinones” (Journal of Medicinal Chemistry, 2025).

Assays:
murine langerin CRD [1] = biological target: T1, murine langerin CRD (Mus musculus, UniProt Q8VBX4); experiment: ITC titration of inhibitors into murine langerin CRD; assay type: binding; conditions: for Kd: ITC, 278.15 K; for Ligand efficiency (LE): based on the best affinities from both conditions (Ca2+ present/absent), Gibbs free energy / number of non-hydrogen atoms
T1 construct: Murine langerin CRD (amino acids: 191–331) was cloned; made in house; host or cells: E. coli BL21
T1 sequence (Q8VBX4 191-331): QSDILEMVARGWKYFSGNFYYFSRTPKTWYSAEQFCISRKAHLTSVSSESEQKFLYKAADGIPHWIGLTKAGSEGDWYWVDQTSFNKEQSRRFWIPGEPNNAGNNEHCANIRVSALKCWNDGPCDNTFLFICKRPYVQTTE
Procedure: Isothermal titration calorimetry experiments were performed using a PEAQ-ITC from Malvern or a Nano ITC from TA Instruments at 278.15 K. Langerin CRD in 25 mM MES/NaOH pH = 6.0 with 40 mM NaCl was injected in the sample cell (total volume 170–300 μL, receptor concentration 80–100 μM) of the device. The titrant was dissolved in the same buffer as the protein and added in 20 steps of 2.5 μL (first injection, 1.2 μL; total volume, 50 μL) while stirring at 350 rpm. The differential heat of each injection was measured and plotted against the molar ratio. All thermograms were integrated using NITPIC, the titration curves were fitted using SEDPHAT with error estimates using the confidence interval, and all figures were made in GUSSI.
For Ca^2+ titration, calcium chloride solutions were prepared in 25 mM MES/NaOH, 40 mM NaCl in the syringe. Langerin CRD was dialyzed against 25 mM MES/NaOH, 40 mM NaCl with 10 mM EDTA, and subsequently 25 mM MES/NaOH, 40 mM NaCl, to remove Ca^2+ before loading into the sample cell. The thermogram of Ca^2+ titration was fitted with the One-Site (independent) model. In the Ca^2+ present titration set up, the protein was in 25 mM MES/NaOH, 40 mM NaCl with 5 mM calcium chloride, and 5% DMSO in the sample cell. The ligand concentration was set to 0.1–2 mM, depending on the solubility, and dissolved in the same buffer as the protein. The raw data were fitted using either the One-Site (independent) model or the Competitive Binding model. Affinity and enthalpy data of Ca^2+ binding to langerin were extracted from the Ca^2+ titration and applied in the Competitive Binding model subsequently. In the Ca^2+ absent titration set up: ligand concentration was set to 0.1–2 mM, receptor concentration was set to 80–100 μM, both dissolved in 25 mM MES/NaOH, 40 mM NaCl with 5%DMSO. The thermogram was fitted with the one-site (independent) model.
Isothermal Titration Calorimetry (ITC)
The raw ITC data were initially processed using the default software provided by respective ITC instrument: MicroCal PEAQ-ITC Analysis Software 1.41 and Nanoanalyze Data Analysis 3.5.0. For MicroCal, the fitting model was set to One Set of Sites, with the following parameters: baseline option (time factor 5, points per injection 25), control parameter set to Fitted Offset, site value fixed at 1 and other parameters set to vary. For Nanoanalyze, blank titration files were used for area correction, fitting model set to independent, binding site n fixed at 1, and other parameters allowed to vary.
The raw data from both systems were further processed using NITPIC 2.1.0, baseline type set to Best Fit, with pre- and post-injection tail correction applied, integral significance level was adjusted based on the quality of each titration, and the outlier threshold was defined as twice of the standard deviation. The processed data were then analyzed in SEDPHAT 15.2b. For Ca2+ titration and ligand titration in the absence of Ca2+, the fitting model was set as Hetero Association A-B (Single-site model) with the global parameter log(Ka) and dHAB set as vary. For ligand titration in the presence of Ca2+, the fitting model was set as Competing B and C for A (Competitive binding model) with the global parameter log(KAC) and dHAC set as the data obtained from Ca2+ titration (4.336 and -8.2 kcal/mol), and log(KAB) and dHAB as vary. Experimental parameters for titration were defined as Titrating B into AC. Final presentation of the […]

murine langerin CRD [2] = biological target: T1, murine langerin CRD; experiment: 43Ca NMR assay of Ca2+ binding to langerin in the presence of inhibitors; design: Chemical shift δ (Table S1, 43Ca NMR) / Linewidth ∆ν (Table S1, 43Ca NMR): unit not given here; conditions: Ca2+ + langerin + 400 μM inhibitor, pH 6.0; for Chemical shift δ (Table S1, 43Ca NMR): free 0.175, langerin-bound 0.116; for Linewidth ∆ν (Table S1, 43Ca NMR): free 0.89, langerin only 1.94; for Integral (relative to the ligand present free state) (Table S1, 43Ca NMR): free 1, langerin only 0.147
Procedure: ^43Ca NMR samples contain 50 μM langerin CRD in 25 mM MES/NaOH and 40 mM NaCl, pH 6.0, with 2.5 mM ^43CaCl2 (elemental calcium enriched to 57.9%, prepared from CaCO3 by hydrolysis with conc. HClaq followed by drying under vacuum; repeated three times), 400 μM compound, and 10% D2O. The negative controls contain the same components except for the protein. The positive control has 5 mM EDTA for fully chelating 2.5 mM Ca^2+ in 25 mM MES/NaOH and 40 mM NaCl. A spectrum width between 50 and −50 ppm was chosen. NMR spectra were measured at 25 °C on a 500 MHz Bruker NEO spectrometer equipped with a BBO probe. The carrier frequency was set to 0 ppm, and spectra were recorded with a recovery delay of […] and 1024 scans. All experiments were carried out with constant concentrations, volumes, receiver gains, and numbers of averaged FIDs.
Data processing and visualization were performed using TopSpin 4.4.0 (Bruker BioSpin GmbH, Rheinstetten, Germany) and MestReNova 10.0 (Mestrelab Research, Santiago de Compostela, Spain). Spectra were processed using an exponential window function with 1.00 Hz, zero-filled to a final size of 32,768 points (from an original FID size of 3,424), and baseline-corrected using spline. Parameter extraction was performed on data fitted without a window function to ensure an unbiased representation of the spectral features. […]

murine langerin = conditions: in the presence of Ca^2+; previously reported, previous screening campaign (reference number not given); read-out: previously reported affinities; cited from earlier work
[3] = Solubility assessment using 1H NMR; assay type: physicochemical; conditions: DSS reference, titrated from DMSO stock into protein buffer
Procedure: The compounds were dissolved in 100 mM DMSO and titrated into the same buffer solution where the protein was stored for different essays. DSS was used as the reference with a concentration of 100 µM. The integration and chemical shift of the ligand signals were monitored as indicators of potential aggregation. The solubility of compounds 1, 2, 3 were reported elsewhere. 1
Figure S1. Solubility assessment of compound 3 and 5 using 1H NMR. Compound […]
with the expected ratio relative to DSS, indicating its solubility at 1 mM in aqueous […]
(1 picture or pasted object on this page, not shown here)

murine langerin CRD [4] = biological target: T1, murine langerin CRD; experiment: 19F R2-filtered NMR assay with carbohydrate reporter ManNAcF3; assay type: binding; conditions: 25 mM MES/NaOH, 40 mM NaCl, 5 mM CaCl2, pH 6.0; 50 μM protein; read-out: K D of the carbohydrate reporter
Procedure: ^19F-NMR and ^19F-R2-filtered NMR experiments were conducted on a Bruker UltraShield 500 MHz spectrometer at 298 K. Spectra were processed in MestReNova 12.0, and data analysis was performed with GraphPad Prism version 10.2.0 for Windows (GraphPad Software, Boston, Massachusetts, USA, www.graphpad.com). Relaxation rates R 2,obs were determined with the CPMG pulse sequence, eq shown below. T represents the relaxation time, and I 0 is the integral at a T value of 0 s. The relaxation delay d 1 was set to 2.0 s, the acquisition time t acq was set to 0.87 s, and the frequency of 180° pulses νCPMG was set to 500 Hz. I=I0e^−R2,obsT 2
The KD value of the reporter was determined in a titration experiment at five concentrations [L]T with 50 μM protein. Samples were prepared via serial dilution. The K D and the R 2,b value of the reporter molecule were derived from eq by detection of the ^19F NMR relaxation rate R 2,obs in a two-parameter fit. R 2,b represents the relaxation rate in the bound state of the ligand, and p b is the bound fraction of the ligand, while [P]T represents the concentration of the receptor. The relaxation rate of the free ligand R 2,f was measured at 0.1 mM in the absence of the receptor. […]
Due to the complex equilibrium and competition effects present in the competitive binding experiments, EC50 values were utilized to quantify the inhibition degree. […]

langerin = conditions: previous results using more elaborate structures from this series (reference number not given); cited from earlier work
[5] = Ca2+-depleted protein, 25 mM MES/NaOH pH 6.0, 40 mM NaCl, 5% DMSO, read-out: K D [single-site model] (A + B ↔ AB), Ca^2+ absent
[6] = 5 mM CaCl2, 25 mM MES/NaOH pH 6.0, 40 mM NaCl, 5% DMSO, mean ± standard error of fit, read-out: K D [single-site model] (A + B↔AB), Ca^2+ present
[7] = 5 mM CaCl2, pH 6.0, 5% DMSO, competition between inhibitor and Ca2+ assumed, read-out: K D [competitive binding model] (A + B + C ↔ AB + C ↔ AC + B), Ca^2+ present

O=C(O)c1cnc2sccn2c1=O [Compound 1]
Kd (murine langerin CRD [1]; [5]): 1100 ± 300 µM | Ligand efficiency (LE) (murine langerin CRD [1]): 0.31 kcal·mol^–1·HA^–1 | Chemical shift δ (Table S1, 43Ca NMR) (murine langerin CRD [2]): 0.173 | Linewidth ∆ν (Table S1, 43Ca NMR) (murine langerin CRD [2]): 2.80 | Integral (relative to the ligand present free state) (Table S1, 43Ca NMR) (murine langerin CRD [2]): 0.355 | Kd (murine langerin): 700 µM

Cc1csc2ncc(C(=O)O)c(=O)n12 [Compound 2]
Kd (murine langerin CRD [1]; [6]): 400 ± 70 µM | Kd (murine langerin CRD [1]; [7]): 81 ± 12 µM | Kd (murine langerin CRD [1]; [5]): 19 ± 2 µM | Ligand efficiency (LE) (murine langerin CRD [1]): 0.46 kcal·mol^–1·HA^–1 | Chemical shift δ (Table S1, 43Ca NMR) (murine langerin CRD [2]): 0.154 | Linewidth ∆ν (Table S1, 43Ca NMR) (murine langerin CRD [2]): 1.79 | Integral (relative to the ligand present free state) (Table S1, 43Ca NMR) (murine langerin CRD [2]): 0.324 | Kd (murine langerin): 1200 µM

Cc1sc2ncc(C(=O)O)c(=O)n2c1C [Compound 3]
Kd (murine langerin CRD [1]; [6]): 150 ± 40 µM | Kd (murine langerin CRD [1]; [7]): 17 ± 4 µM | Kd (murine langerin CRD [1]; [5]): 53 ± 8 µM | Ligand efficiency (LE) (murine langerin CRD [1]): 0.44 kcal·mol^–1·HA^–1 | Chemical shift δ (Table S1, 43Ca NMR) (murine langerin CRD [2]): 0.139 | Linewidth ∆ν (Table S1, 43Ca NMR) (murine langerin CRD [2]): 1.78 | Integral (relative to the ligand present free state) (Table S1, 43Ca NMR) (murine langerin CRD [2]): 0.344 | Kd (murine langerin): 900 µM | solubility ([3]; aqueous protein storage buffer, aqueous buffer, kinetic from dmso stock): ≥ 1000 µM

NCCNC(=O)c1cnc2ccccn2c1=O [Compound 4, N-(2-Aminoethyl)-4-oxo-4H-pyrido[1,2-a]pyrimidine-3-carboxamide]
Kd (murine langerin CRD [1]; [6]): 8500 ± 2000 µM | Kd (murine langerin CRD [1]; [7]): 480 ± 70 µM | Kd (murine langerin CRD [1]; [5]): 200 ± 90 µM | Ligand efficiency (LE) (murine langerin CRD [1]): 0.27 kcal·mol^–1·HA^–1 | Chemical shift δ (Table S1, 43Ca NMR) (murine langerin CRD [2]): 0.174 | Linewidth ∆ν (Table S1, 43Ca NMR) (murine langerin CRD [2]): 1.64 | Integral (relative to the ligand present free state) (Table S1, 43Ca NMR) (murine langerin CRD [2]): 0.316

O=C(O)c1cnc2ccccn2c1=O [Compound 5, 4-oxo-4H-pyrido[1,2-a]pyrimidine-3-carboxylic acid]
Solubility in aqueous buffer [3]: partial solubility

C#CCO[C@H]1O[C@H](CO)[C@@H](O)[C@H](O)[C@@H]1NC(=O)C(F)(F)F [ManNAcF3]
Kd (murine langerin CRD [4]): 28000 ± 5000 µM

O=C(NCCc1cn2c(n1)SCC2)c1cnc2sccn2c1=O [N-(2-(2,3-dihydroimidazo[2,1-b]-thiazol-6-yl)-ethyl)-5-oxo-5H-thiazolo[3,2-a]-pyrimidine-6-carboxamide]
Competition with Ca^2+ (langerin): did not show competition with Ca^2+
